Where two headings read alike, the source gives them in different places.
What was measured:
Assay in all cases: cell-based
[1] = target: T1, CAT1 (cationic amino acid transporter 1, CAT1/SLC7A1) (Homo sapiens, UniProt P30825); set-up: species or system HEK-CAT1 (HEK293 stably transfected); Inhibition of net CAT1-mediated [3H]-L-arginine (100 uM) uptake, 5 min, scintillation counting, vector control subtracted; settings: HEK293, L-arginine 100 uM as substrate; for inhibition at 20 µM: read-out: % Inhibition of L-arginine uptake at 20 µM; for inhibition at 200 µM: read-out: % Inhibition of L-arginine uptake at 200 µM
T1 construct: full-length human transporter stably transfected in HEK cells (HEK-CAT1); net uptake against HEK-VC vector control cells
T1 sequence (P30825 whole entry): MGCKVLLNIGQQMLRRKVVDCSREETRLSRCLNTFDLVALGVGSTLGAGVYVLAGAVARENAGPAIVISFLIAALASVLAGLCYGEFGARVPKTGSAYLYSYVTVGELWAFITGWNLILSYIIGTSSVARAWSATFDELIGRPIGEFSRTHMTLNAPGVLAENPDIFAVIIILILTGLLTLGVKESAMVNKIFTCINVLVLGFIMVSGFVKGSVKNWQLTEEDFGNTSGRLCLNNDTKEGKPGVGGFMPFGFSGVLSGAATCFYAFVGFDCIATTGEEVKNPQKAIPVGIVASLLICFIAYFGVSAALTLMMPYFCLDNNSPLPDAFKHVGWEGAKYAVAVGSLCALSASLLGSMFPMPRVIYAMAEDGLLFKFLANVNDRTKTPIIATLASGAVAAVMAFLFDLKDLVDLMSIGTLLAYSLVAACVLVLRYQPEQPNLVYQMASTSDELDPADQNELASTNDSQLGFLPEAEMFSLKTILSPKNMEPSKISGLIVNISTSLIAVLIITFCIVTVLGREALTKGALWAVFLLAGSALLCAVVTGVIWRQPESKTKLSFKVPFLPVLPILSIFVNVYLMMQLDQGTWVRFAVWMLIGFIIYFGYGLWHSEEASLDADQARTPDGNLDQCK
Procedure, shortened: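 HEK-CAT1 and vector-control HEK-VC cells took up [3H]-L-arginine (100 μM) for 5 min, with or without drug at 20 or 200 µM; [3H]-L-homoarginine or [3H]-ADMA uptake ran 2.5 min. Net uptake is CAT1 minus VC cells, and inhibition (%) = 100 − (V/V0 × 100). Negative values mean stimulated uptake.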

[2] = target: T1, CAT1 (cationic amino acid transporter 1, CAT1/SLC7A1); set-up: species or system HEK-CAT1 (HEK293 stably transfected); Inhibition of net CAT1-mediated [3H]-L-homoarginine (1 uM) uptake, 2.5 min, scintillation counting, vector control subtracted; settings: HEK293, L-homoarginine 1 uM as substrate; for inhibition at 20 µM: read-out: % Inhibition of L-homoarginine uptake at 20 µM; for inhibition at 200 µM: read-out: % Inhibition of L-homoarginine uptake at 200 µM
Procedure, shortened: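 HEK-CAT1 cells with HEK-VC vector controls; [3H]-L-homoarginine (1 μM) uptake over 2.5 min with or without test compound at 20 µM or 200 µM. Net CAT1 uptake (CAT1 minus VC) gives inhibition (%) = 100 – (V/V0 × 100). Negative values mean stimulated uptake; n = 6–9 from at least two independent experiments.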

[3] = target: T1, CAT1 (cationic amino acid transporter 1, CAT1/SLC7A1); set-up: species or system HEK-CAT1 (HEK293 stably transfected); Inhibition of net CAT1-mediated [3H]-ADMA (1 uM) uptake, 2.5 min, scintillation counting, vector control subtracted; settings: HEK293, ADMA 1 uM as substrate; for inhibition at 20 µM: read-out: % Inhibition of ADMA uptake at 20 µM; for inhibition at 200 µM: read-out: % Inhibition of ADMA uptake at 200 µM
Procedure, shortened: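 HEK cells expressing CAT1 and vector-control cells took up [^3H]-L-arginine for 5 min, or [^3H]-L-homoarginine or [^3H]-ADMA (1 μM) for 2.5 min, with or without drug at 20 or 200 µM. Net CAT1 uptake was CAT1 cells minus control cells, and inhibition (%) = 100 − V/V0×100. Negative values mean stimulation; n = 6–9.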

Row | inhibition at 20 µM [1] [%] | inhibition at 200 µM [1] [%] | inhibition at 20 µM [2] [%] | inhibition at 200 µM [2] [%] | inhibition at 20 µM [3] [%] | inhibition at 200 µM [3] [%] | Compound
1 | -6.3 ± 5.9 | -8.5 ± 1.5 | -3.2 ± 2 | -10.8 ± 1.6 | -4.7 ± 2.1 | 20.7 ± 14.1 | c1c[nH]cn1 [Imidazole]
2 | 0.08 ± 4.8 | 22.6 ± 5.7 | -3.1 ± 1.6 | 15 ± 2.1 | -4.3 ± 2.1 | 14.1 ± 4.1 | CN(C)CCCN1c2ccccc2CCc2ccccc21 [Imipramine]
3 | 23.9 ± 0.8 | 9.9 ± 8.2 | 7 ± 4.2 | 10.9 ± 2.6 | 6.4 ± 4.4 | 1.4 ± 9.6 | CN1CCC(=C2c3ccccc3CC(=O)c3sccc32)CC1 [Ketotifen]
4 | 27.4 ± 4.6 | -3.9 ± 4.6 | -3.4 ± 0.3 | -3.1 ± 1.4 | -5.3 ± 4 | 22.9 ± 4.9 | Nc1ccn([C@@H]2CS[C@H](CO)O2)c(=O)n1 [Lamivudine]
5 | -18.4 ± 6.9 | -17.2 ± 5.1 | 19.6 ± 11.8 | -15.9 ± 3.8 | 18.9 ± 12.5 | -34.3 ± 2.4 | c1ccc([C@H]2CN3CCSC3=N2)cc1 [Levamisole]
6 | 8.1 ± 3.1 | 31.4 ± 0.6 | 8.2 ± 3 | 30.4 ± 0.2 | 28.1 ± 0.9 | -6 ± 0.5 | N[C@@H](Cc1ccc(O)c(O)c1)C(=O)O [Levodopa]
7 | 13.5 ± 1.7 | -34.8 ± 1.4 | 11 ± 0.5 | -27.1 ± 2 | 7 ± 3.8 | 12.9 ± 4.1 | CCCCc1nc(Cl)c(CO)n1Cc1ccc(-c2ccccc2-c2nnn[nH]2)cc1 [Losartan]
8 | 22.3 ± 0.8 | -7.1 ± 2.1 | 19.5 ± 1 | -6.8 ± 0.9 | 5.4 ± 4.3 | 9.9 ± 4.5 | CN(Cc1cnc2nc(N)nc(N)c2n1)c1ccc(C(=O)N[C@@H](CCC(=O)O)C(=O)O)cc1 [Methotrexate]
9 | 24.5 ± 10.5 | -23.9 ± 3.7 | 0.7 ± 11.9 | -23.9 ± 2.1 | 0.7 ± 11.9 | 1.8 ± 0.9 | COc1ccc(OC)c(C(O)C(C)N)c1 (stereo not drawn) [Methoxamine]
10 | 7.7 ± 1.9 | 2.6 ± 3.7 | -4.7 ± 2 | 0.8 ± 2.2 | -3.1 ± 2 | -16.6 ± 0.4 | Cc1ncc([N+](=O)[O-])n1CCO [Metronidazole]
11 | -17.2 ± 10.5 | -13.9 ± 5.1 | -8.3 ± 1.6 | -11.6 ± 3.2 | -3.2 ± 0.4 | 32.6 ± 3.7 | CN1CCOC(c2ccccc2)c2ccccc2C1 (stereo not drawn) [Nefopam]
12 | -1.5 ± 7.1 | 26.1 ± 8.1 | 3.4 ± 8.7 | 15.2 ± 4.5 | 3.2 ± 9.5 | 30.4 ± 0.8 | CCOC(=O)C1=C(C)NC(C)=C(C(=O)OC)C1c1cccc([N+](=O)[O-])c1 (stereo not drawn) [Nitrendipine]
13 | 2.8 ± 2.3 | -32.8 ± 1.4 | 3 ± 2.3 | -13.7 ± 5.1 | -13.2 ± 1.9 | -7.7 ± 3.5 | CCCc1nc(C(C)(C)O)c(C(=O)O)n1Cc1ccc(-c2ccccc2-c2nnn[nH]2)cc1 [Olmesartan]
14 | 8.8 ± 7.9 | -5.7 ± 4.1 | -0.5 ± 5.9 | -8.3 ± 1.6 | -0.4 ± 5.9 | 10.1 ± 2.3 | Cc1nccn1CC1CCc2c(c3ccccc3n2C)C1=O (stereo not drawn) [Ondansetron]
15 | 16.7 ± 2.1 | 10.5 ± 0.9 | 15.2 ± 1.8 | 12.5 ± 0.3 | -4.5 ± 1.7 | -9.9 ± 3.1 | COc1ccnc(C[S+]([O-])c2nc3cc(OC(F)F)ccc3[nH]2)c1OC (stereo not drawn) [Pantoprazole]

Continued, molecule first:

Row | Compound | inhibition at 20 µM [1] [%] | inhibition at 200 µM [1] [%] | inhibition at 20 µM [2] [%] | inhibition at 200 µM [2] [%] | inhibition at 20 µM [3] [%] | inhibition at 200 µM [3] [%]
16 | NCCCC[C@H](N[C@@H](CCc1ccccc1)C(=O)O)C(=O)N1CCC[C@H]1C(=O)O [Lisinopril] | 4.6 ± 3.8 | -12.6 ± 5 | 6.4 ± 3.1 | -11.4 ± 3.8 | 1.6 ± 1.9 | 15.7 ± 0.8
17 | CN(C)C(=O)C(CCN1CCC(O)(c2ccc(Cl)cc2)CC1)(c1ccccc1)c1ccccc1 [Loperamide] | 16.9 ± 2.3 | -3.6 ± 2.1 | 18.9 ± 0.2 | -2.7 ± 3.9 | 17.6 ± 1.6 | 1.4 ± 2.1
18 | CC12CC3CC(C)(C1)CC(N)(C3)C2 [Memantine] | -3.2 ± 3.9 | -21.7 ± 5.1 | -3.9 ± 3.4 | -16.6 ± 0.8 | 14.8 ± 2.6 | -9.6 ± 1.8
19 | C[C@@H](O)[C@H]1C(=O)N2C(C(=O)O)=C(S[C@@H]3CN[C@H](C(=O)N(C)C)C3)[C@H](C)[C@H]12 [Meropenem] | -19.1 ± 9.3 | -13.4 ± 4.9 | -19.3 ± 9.1 | -13.6 ± 4.6 | 0.1 ± 3.2 | 12.1 ± 5.1
20 | CN(C)C(=N)NC(=N)N [Metformin] | -20.7 ± 14.1 | -23.1 ± 1.4 | -20.4 ± 13.7 | -18.8 ± 1.3 | -8 ± 4.3 | -8.4 ± 3.1
21 | CCN(CC)CCNC(=O)c1cc(Cl)c(N)cc1OC [Metoclopramide] | 7.5 ± 2.1 | 2.5 ± 3.5 | -6.3 ± 1.4 | 1.4 ± 3.2 | -3.2 ± 2.1 | 4.2 ± 9.4
22 | COCCc1ccc(OCC(O)CNC(C)C)cc1 (stereo not drawn) [Metoprolol] | 8.1 ± 6.7 | 1.3 ± 3.8 | -21.4 ± 3.7 | 0.3 ± 2.5 | -15.1 ± 7.1 | 19.8 ± 4.1
23 | CC#C[C@]1(O)CC[C@H]2[C@@H]3CCC4=CC(=O)CCC4=C3[C@@H](c3ccc(N(C)C)cc3)C[C@@]21C [Mifepristone] | 24.6 ± 0.6 | -19.9 ± 4.4 | 8.5 ± 11.1 | -15 ± 1.6 | 8.1 ± 11.4 | 5.6 ± 3.7
24 | C#C[C@]1(O)CC[C@H]2[C@@H]3CCC4=CC(=O)CC[C@@H]4[C@H]3CC[C@@]21C [Norethindrone] | 26.9 ± 5 | -19.7 ± 3.3 | 23.5 ± 4 | -12.8 ± 9.6 | -3.8 ± 1.6 | -3.1 ± 0.5
25 | OCCN1CCN(CCCN2c3ccccc3C=Cc3ccccc32)CC1 [Opipramol] | 22.3 ± 1.8 | 29.2 ± 2.7 | -16.8 ± 3.4 | 29.5 ± 2.7 | -13.4 ± 3.7 | -1 ± 4.5
26 | CC[C@H](C)C(=O)O[C@H]1C[C@H](O)C=C2C=C[C@H](C)[C@H](CC[C@@H](O)C[C@@H](O)CC(=O)O)[C@H]21 [Pravastatin] | 0.2 ± 4.4 | 4.1 ± 2.6 | -0.4 ± 3.8 | -10.1 ± 1.4 | -18.5 ± 3.3 | -4.4 ± 9.6
27 | C[C@]12C=CC(=O)C=C1CC[C@@H]1[C@@H]2[C@@H](O)C[C@@]2(C)[C@H]1CC[C@]2(O)C(=O)CO [Prednisolone] | 12.5 ± 4.1 | -21.4 ± 1.3 | -11.1 ± 5.8 | -16.5 ± 2.4 | -3.3 ± 6.9 | 13.4 ± 4.7
28 | C[C@]12C=CC(=O)C=C1CC[C@@H]1[C@@H]2C(=O)C[C@@]2(C)[C@H]1CC[C@]2(O)C(=O)CO [Prednisone] | 13.9 ± 3.4 | 19.1 ± 0.8 | 12.5 ± 2.7 | 13.2 ± 2.6 | -33.3 ± 2.3 | -16.9 ± 2.24
29 | CCCN(CCC)S(=O)(=O)c1ccc(C(=O)O)cc1 [Probenecid] | -2.6 ± 3.2 | 0.4 ± 2.1 | -2.9 ± 2.8 | -1.1 ± 2.2 | -24.9 ± 8.3 | -17.5 ± 1.8
30 | CC(CN1c2ccccc2Sc2ccccc21)N(C)C (stereo not drawn) [Promethazine] | -1.3 ± 7.1 | 14.4 ± 6 | 4.3 ± 2 | 14 ± 0.9 | 4.2 ± 2 | -9.2 ± 1.2

— paper PMC9217908, “Screening of commonly prescribed drugs for effects on the CAT1-mediated transport of L-arginine and arginine derivatives” (Amino Acids, 2022)
